Experiments:
NQO2 [1] = biological target: T1, NQO2 (Homo sapiens, UniProt P16083); experiment: Inhibition of recombinant NQO2, menadione as substrate with BNAH; assay type: biochemical
T1 sequence (P16083 1-231): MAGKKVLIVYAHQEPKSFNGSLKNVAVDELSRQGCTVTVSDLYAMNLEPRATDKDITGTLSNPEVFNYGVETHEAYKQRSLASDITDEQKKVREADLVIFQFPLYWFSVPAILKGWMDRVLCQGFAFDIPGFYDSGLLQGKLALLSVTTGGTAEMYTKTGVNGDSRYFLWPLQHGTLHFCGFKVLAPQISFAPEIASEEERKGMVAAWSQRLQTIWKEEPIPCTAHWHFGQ

NQO1 = NQO1 (Homo sapiens, UniProt P15559); experiment: Inhibition of recombinant NQO1, DCPIP reduction; assay type: biochemical
Sequence of NQO1 (P15559 whole entry): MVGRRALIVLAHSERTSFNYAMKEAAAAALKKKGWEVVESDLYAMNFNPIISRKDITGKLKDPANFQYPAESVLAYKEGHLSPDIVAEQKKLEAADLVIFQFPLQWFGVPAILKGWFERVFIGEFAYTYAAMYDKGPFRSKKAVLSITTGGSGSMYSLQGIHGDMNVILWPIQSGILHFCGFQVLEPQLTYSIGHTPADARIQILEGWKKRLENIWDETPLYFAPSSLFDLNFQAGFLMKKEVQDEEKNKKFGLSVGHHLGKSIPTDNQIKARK

[2] = cited from earlier work
NQO2 [3] = biological target: T1, NQO2; experiment: Inhibition of recombinant NQO2, DCPIP reduction with BNAH; assay type: biochemical
NQO2 [4] = biological target: T1, NQO2; experiment: Inhibition of recombinant NQO2, MTT reduction with BNAH; assay type: biochemical
CYP = settings: up to 25 μM of tacrine, all four microsomal-activated drugs (data not shown)
NQO2 [5] = biological target: T1, NQO2; settings: 0.25 μM NQO2, tacrine 0, 5, 10, or 20 μM, 50 μM quinone imine
NQO2 [6] = biological target: T1, NQO2; experiment: Enzyme kinetics of DCPIP reduction by NQO2; assay type: biochemical; settings: 50 nM NQO2, 100 µM BNAH

CC(=O)Nc1ccc(O)cc1 [Acetaminophen, acetaminophen]
inhibition of NQO2 activity (NQO2 [1]; up to 1 mM): did not inhibit
inhibition of NQO1 activity (NQO1; up to 1 mM): did not inhibit

Nc1c2c(nc3ccccc13)CCCC2 [tacrine]
plasma concentration of tacrine in humans [2]: around 0.04 μM
Ki (NQO2 [3]; Ki value, range over DCPIP and MTT as substrate): 3 to 15 µM
Ki (NQO2 [3]; Ki, recombinant NQO2, substrate DCPIP (25 μM), 100 μM BNAH, mean ± SD (n = 3)): 3 ± 1 µM
Ki fold lower than found for NQO2 inhibition by resveratrol (NQO2 [3]; substrate DCPIP): 9 fold
Ki for NQO2 fold lower compared to the Ki for NQO1 (NQO2 [3]; substrate DCPIP): 64 fold
Ki (NQO2 [4]): 15 ± 1 µM
effect on CYP metabolism (CYP): no effect
inhibition of NQO2-mediated reduction of synthetic amodiaquine quinone imine (NQO2 [5]): concentration-dependent inhibition
Ki (NQO1): 193 ± 1 µM

O=C(O)Cc1ccccc1Nc1c(Cl)cccc1Cl [diclofenac]
Ki (NQO1): 13 µM

Cc1cccc(Nc2ccccc2C(=O)O)c1C [mefenamic acid]
Ki (NQO2 [1]): 66 µM
Ki (NQO1): 40 µM

O=C1C(Cl)=CC(=Nc2ccc(O)cc2)C=C1Cl [DCPIP, 2,6-dichlorophenolindophenol]
Km (NQO2 [6]): 25 µM

— PMC5997408 (Chemical Research in Toxicology, 2017)
